From ChEMBL document CHEMBL1147743, “The first potent inhibitors for human glutaminyl cyclase: synthesis and structure-activity relationship” (J Med Chem, 2006) come the findings set out here.

The experiment deals with Glutaminyl-peptide cyclotransferase (Homo sapiens, UniProt Q16769). As to the kind of experiment: Inhibitory activity against human glutaminyl cyclase.

SMILES strings stand for the structures.

Glutaminyl-peptide cyclotransferase, sequence (Q16769 whole entry): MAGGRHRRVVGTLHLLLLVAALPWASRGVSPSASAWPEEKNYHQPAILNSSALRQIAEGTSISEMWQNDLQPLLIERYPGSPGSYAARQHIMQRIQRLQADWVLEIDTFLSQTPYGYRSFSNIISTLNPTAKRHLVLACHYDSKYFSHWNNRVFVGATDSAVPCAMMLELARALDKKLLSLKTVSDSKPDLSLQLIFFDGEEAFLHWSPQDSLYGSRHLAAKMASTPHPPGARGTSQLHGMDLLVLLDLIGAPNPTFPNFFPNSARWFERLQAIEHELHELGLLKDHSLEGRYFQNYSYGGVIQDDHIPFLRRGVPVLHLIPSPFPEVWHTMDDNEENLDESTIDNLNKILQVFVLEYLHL

The term Ki denotes a dissociation constant, usually derived from enzyme kinetics or from competition with a known ligand. A lower Ki goes with tighter binding. Consider `S=C(NCCCn1ccnc1)NC1CCCCC1`, for which the Ki was 4.7 µM.
The value for `O=C1CNC(=S)N1CCCn1ccnc1` was 0.7 µM.
